For seven compounds, IC50 results are on record in patent US5516806A, “Ornithine decarboxylase inhibiting cyclic aminooxy compounds” (Ciba-Geigy Corporation, priority 1993, dated 1996).

pIC50: −log10 of the molar value. Structures can show the parent of a compound that is named as a salt.

The subject of assay [1] is human T24 bladder carcinoma cells. Nature of the assay: Inhibition of proliferation of T24 bladder carcinoma cells (methylene blue staining, 5 days). The class given is cell-based. Particulars: T-24, 120 h, 5 days incubation, read-out: Inhibition of T24 cell growth IC50. The procedure:
The carcinoma cells (1000-1500) are transinoculated into 96-depression microlitre plates and incubated overnight under the conditions mentioned. The test substance is added in serial dilutions on day 1. The plates are incubated under the conditions mentioned for 5 days. During this period of time, the control cultures pass through at least 4 cell divisions. After the incubation, the cells are fixed with 3.3% (weight/volume=w/v) aqueous glutaraldehyde solution, washed with water and dyed with 0.05% (w/v) aqueous methylene blue solution. After washing, the dye is eluted with 3% (w/v) aqueous hydrochloric acid. Thereafter, the optical density (OD) per depression, which is directly proportional to the number of cells, is measured with a photometer (Titertek multiskan) at 665 nm. The IC50 values are calculated with a computer system using the formula [formula]
The IC50 values are defined as that concentration of active ingredient at which the number of cells per depression at the end of the incubation time is only 50% of the number of cells in the control cultures.
(§1) On measurement of the IC50 for inhibition of ornithine decarboxylase (by the abovementioned method of Seely and Pegg with ODC from rat liver (obtained by the method of Hayashi and Kameji, see above)) and of the IC50 for inhibition of proliferation of T24 bladder carcinoma cells as described above, the following IC50 values can be found with the particular compounds mentioned from the examples: […]

The target in assay [2] is T1, ornithine decarboxylase (ODC) (Rattus norvegicus, UniProt P09057).
T1 construct: from tissue; host or cells: rat liver
T1 sequence (P09057 1-461): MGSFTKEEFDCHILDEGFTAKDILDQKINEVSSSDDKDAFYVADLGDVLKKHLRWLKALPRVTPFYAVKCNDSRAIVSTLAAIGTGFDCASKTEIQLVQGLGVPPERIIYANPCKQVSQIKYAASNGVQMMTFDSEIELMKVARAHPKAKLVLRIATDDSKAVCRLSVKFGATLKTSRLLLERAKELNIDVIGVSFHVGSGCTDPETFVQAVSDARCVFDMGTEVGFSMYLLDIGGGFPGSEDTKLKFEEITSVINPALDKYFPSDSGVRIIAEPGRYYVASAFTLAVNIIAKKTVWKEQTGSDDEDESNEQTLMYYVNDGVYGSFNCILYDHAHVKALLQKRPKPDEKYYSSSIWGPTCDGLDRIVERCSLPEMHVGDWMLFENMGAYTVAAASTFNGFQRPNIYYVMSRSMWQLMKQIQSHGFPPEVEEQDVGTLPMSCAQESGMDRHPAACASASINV
Nature of the assay: Inhibition of ornithine decarboxylase (method of Seely and Pegg, ODC from rat liver). The class given is biochemical. How it is done: White-Tabor (editors): Methods in Enzymology, Volume 94: Polyamines, Academic Press, New York 1983. If ODC from rat liver is used in this test (isolation: Hayashi, S.-I. and Kameji, T., same volume, pages 154-158), IC50 values in the micromolar region, down to about 0.01 μM, preferably between about 0.01 and 10 μM, for example between about 0.02 and about 7.2 μM, are obtained for the compounds of the formula I.IC50 is the concentration of the inhibitor at which the ODC activity is 50% of that of a control without the inhibitor.
as §1

The pIC50 is −log10 of the IC50, conventionally taken in molar units. For `NO[C@H]1CCC[C@H](N)C1` (relative stereo) [Example 3, trans-3-Aminooxy-cyclohexylamine dihydrochloride], in assay [1], the pIC50 was 4.96.
The compound `NC[C@@H]1C[C@@H]1CON` (relative stereo) [Example 10, cis-2-Aminooxymethyl-cyclopropylmethylamine dihydrochloride] had a pIC50 in assay [2] of 6.33.
Regarding `NO[C@H]1CC[C@H](N)CC1` [Example 1, trans-4-Aminooxy-cyclohexylamine dihydrochloride], the pIC50 in assay [2] is 6.66; in assay [1] it was 5.12.
As to `NOC[C@H]1C[C@@H](N)C1` [Example 6, cis-3-Aminooxymethyl-cyclobutylamine dihydrochlofide], the pIC50 in assay [2] is 7.08.
Regarding `NOC[C@H]1C[C@H](N)C1` [Example 7, trans-3-Aminooxymethyl-cyclobutylamine dihydrochloride], the pIC50 in assay [2] is 7.64; in assay [1], 5.31.
On the same counts, the results for `NOCC1CC(N)C1` (stereo not shown) [Example 8, 3-Aminooxymethyl-cyclobutylamine dihydrochloride] are 7.70 and 5.38.
For the compound `NCC1CC(ON)C1` (stereo not shown) [Example 9, 3-Aminooxy-cyclobutylmethylamine dihydrochlofide], the pIC50 in assay [2] was 7.28.
